# Tested on: 855422-203-R-J1-PDC complex spheroids, viability
# Test: Anticancer human tumor 855422-203-R-J1-PDC patient-derived bladder carcinoma cell line growth inhibition [CLK]
# Conditions: for IC50: curve of first compound; for viability, T/C: stronger effect = lower value
# How it was run: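 Multi-cell-type spheroids combined patient-derived tumor cells with HUVEC endothelial cells and human mesenchymal stem cells. Paired agents were dosed in half-log steps down from about clinical Cmax, or from 10 microM where Cmax was unknown.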
# [1] = second compound 0.0316 µM, first compound 0.0316 µM
# [2] = second compound 0.0316 µM, first compound 0.1 µM
# [3] = second compound 0.0316 µM, first compound 0.316 µM
# [4] = second compound 0.0316 µM, first compound 1 µM
# [5] = second compound 0.0316 µM, first compound 3.16 µM
# [6] = second compound 0.0316 µM, first compound 10 µM
# [7] = second compound 0.1 µM, first compound 0.0316 µM
# [8] = second compound 0.1 µM, first compound 0.1 µM
# [9] = second compound 0.1 µM, first compound 0.316 µM
# [10] = second compound 0.1 µM, first compound 1 µM
# [11] = second compound 0.1 µM, first compound 3.16 µM
# [12] = second compound 0.1 µM, first compound 10 µM
# [13] = second compound 0.316 µM, first compound 0.0316 µM
# [14] = second compound 0.316 µM, first compound 0.1 µM
# [15] = second compound 0.316 µM, first compound 0.316 µM
# [16] = second compound 0.316 µM, first compound 1 µM
# [17] = second compound 0.316 µM, first compound 3.16 µM
# [18] = second compound 0.316 µM, first compound 10 µM
# [19] = second compound 1 µM, first compound 0.0316 µM
# [20] = second compound 1 µM, first compound 0.1 µM
# [21] = second compound 1 µM, first compound 0.316 µM
# [22] = second compound 1 µM, first compound 1 µM
# [23] = second compound 1 µM, first compound 3.16 µM
# [24] = second compound 1 µM, first compound 10 µM
# [25] = second compound 3.16 µM, first compound 0.0316 µM
# [26] = second compound 3.16 µM, first compound 0.1 µM
# [27] = second compound 3.16 µM, first compound 0.316 µM
# [28] = second compound 3.16 µM, first compound 1 µM
# [29] = second compound 3.16 µM, first compound 3.16 µM
# [30] = second compound 3.16 µM, first compound 10 µM
# [31] = second compound 10 µM, first compound 0.0316 µM
# [32] = second compound 10 µM, first compound 0.1 µM
# [33] = second compound 10 µM, first compound 0.316 µM
# [34] = second compound 10 µM, first compound 1 µM
# [35] = second compound 10 µM, first compound 3.16 µM
# [36] = second compound 10 µM, first compound 10 µM
# 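Also: spheroids exposed to drugs for seven days before readout.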
# 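For viability, T/C in this document: 100% = DMSO vehicle control wells.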
compound,measurement,setting,value
CC(=O)O[C@H]1C(=O)[C@@]2(C)[C@H]([C@H](OC(=O)c3ccccc3)[C@]3(O)C[C@H](OC(=O)[C@H](O)[C@@H](NC(=O)c4ccccc4)c4ccccc4)C(C)=C1C3(C)C)[C@]1(OC(C)=O)CO[C@@H]1C[C@@H]2O + CN1CCN(c2cc(C(=O)Nc3cc4cc(-c5cnn(C)c5)ccc4cn3)ccn2)CC1,IC50,second compound 0.0316 µM,< 31.6 nM
same,IC50,second compound 0.1 µM,< 31.6 nM
same,IC50,second compound 0.316 µM,< 31.6 nM
same,IC50,second compound 1 µM,< 31.6 nM
same,IC50,second compound 3.16 µM,< 31.6 nM
same,IC50,second compound 10 µM,< 31.6 nM
same,"viability, T/C",[1],8.75%
same,"viability, T/C",[2],7.02%
same,"viability, T/C",[3],5.26%
same,"viability, T/C",[4],9.34%
same,"viability, T/C",[5],9.46%
same,"viability, T/C",[6],10.8%
same,"viability, T/C",[7],8.5%
same,"viability, T/C",[8],7.8%
same,"viability, T/C",[9],6.23%
same,"viability, T/C",[10],6.41%
same,"viability, T/C",[11],8.14%
same,"viability, T/C",[12],8.37%
same,"viability, T/C",[13],4.94%
same,"viability, T/C",[14],5.41%
same,"viability, T/C",[15],5.22%
same,"viability, T/C",[16],4.69%
same,"viability, T/C",[17],4.5%
same,"viability, T/C",[18],5.61%
same,"viability, T/C",[19],0.21%
same,"viability, T/C",[20],0.19%
same,"viability, T/C",[21],0.18%
same,"viability, T/C",[22],1.39%
same,"viability, T/C",[23],1.11%
same,"viability, T/C",[24],0.14%
same,"viability, T/C",[25],0.45%
same,"viability, T/C",[26],0.41%
same,"viability, T/C",[27],0.38%
same,"viability, T/C",[28],0.39%
same,"viability, T/C",[29],0.32%
same,"viability, T/C",[30],0.37%
same,"viability, T/C",[31],1.12%
same,"viability, T/C",[32],0.73%
same,"viability, T/C",[33],0.33%
same,"viability, T/C",[34],1.28%
same,"viability, T/C",[35],0.43%
same,"viability, T/C",[36],2.45%
CCc1c2c(nc3ccc(O)cc13)-c1cc3c(c(=O)n1C2)COC(=O)[C@]3(O)CC + CN1CCN(c2cc(C(=O)Nc3cc4cc(-c5cnn(C)c5)ccc4cn3)ccn2)CC1,IC50,second compound 0.0316 µM,4.23 nM
same,IC50,second compound 0.1 µM,< 3.16 nM
same,IC50,second compound 0.316 µM,< 3.16 nM
same,IC50,second compound 1 µM,< 3.16 nM
same,IC50,second compound 3.16 µM,< 3.16 nM
same,IC50,second compound 10 µM,< 3.16 nM
same,"viability, T/C","second compound 0.0316 µM, first compound 0.00316 µM",61.9%
same,"viability, T/C","second compound 0.0316 µM, first compound 0.01 µM",14.1%
same,"viability, T/C",[1],11.2%
same,"viability, T/C",[2],5.5%
same,"viability, T/C",[3],3.03%
same,"viability, T/C",[4],2.59%
same,"viability, T/C","second compound 0.1 µM, first compound 0.00316 µM",24.7%
same,"viability, T/C","second compound 0.1 µM, first compound 0.01 µM",12.1%
same,"viability, T/C",[7],7.5%
same,"viability, T/C",[8],4.65%
same,"viability, T/C",[9],3.59%
same,"viability, T/C",[10],1.4%
same,"viability, T/C","second compound 0.316 µM, first compound 0.00316 µM",5.85%
same,"viability, T/C","second compound 0.316 µM, first compound 0.01 µM",5.41%
same,"viability, T/C",[13],5.45%
same,"viability, T/C",[14],1.97%
same,"viability, T/C",[15],0.54%
same,"viability, T/C",[16],0.17%
same,"viability, T/C","second compound 1 µM, first compound 0.00316 µM",1.09%
same,"viability, T/C","second compound 1 µM, first compound 0.01 µM",0.16%
same,"viability, T/C",[19],0.3%
same,"viability, T/C",[20],0.23%
same,"viability, T/C",[21],0.15%
same,"viability, T/C",[22],0.33%
same,"viability, T/C","second compound 3.16 µM, first compound 0.00316 µM",0.33%
same,"viability, T/C","second compound 3.16 µM, first compound 0.01 µM",0.52%
same,"viability, T/C",[25],0.44%
same,"viability, T/C",[26],0.3%
same,"viability, T/C",[27],0.46%
same,"viability, T/C",[28],0.23%
same,"viability, T/C","second compound 10 µM, first compound 0.00316 µM",0.38%
same,"viability, T/C","second compound 10 µM, first compound 0.01 µM",0.17%
same,"viability, T/C",[31],0.26%
same,"viability, T/C",[32],2.2%
same,"viability, T/C",[33],2.67%
same,"viability, T/C",[34],0.19%
O=c1[nH]cc(F)c(=O)[nH]1 + CN1CCN(c2cc(C(=O)Nc3cc4cc(-c5cnn(C)c5)ccc4cn3)ccn2)CC1,IC50,second compound 0.0316 µM,3800 nM
same,IC50,second compound 0.1 µM,3350 nM
same,IC50,second compound 0.316 µM,< 31.6 nM
same,IC50,second compound 1 µM,< 31.6 nM
same,IC50,second compound 3.16 µM,< 31.6 nM
same,IC50,second compound 10 µM,< 31.6 nM
same,"viability, T/C",[1],109%
same,"viability, T/C",[2],102%
same,"viability, T/C",[3],96.8%
same,"viability, T/C",[4],64.4%
same,"viability, T/C",[5],56.9%
same,"viability, T/C",[6],41.1%
same,"viability, T/C",[7],82.2%
same,"viability, T/C",[8],90.6%
same,"viability, T/C",[9],85.6%
same,"viability, T/C",[10],68.1%
same,"viability, T/C",[11],52.4%
same,"viability, T/C",[12],39.7%
same,"viability, T/C",[13],10.1%
same,"viability, T/C",[14],12.3%
same,"viability, T/C",[15],9.14%
same,"viability, T/C",[16],11.6%
same,"viability, T/C",[17],14.1%
same,"viability, T/C",[18],6.87%
same,"viability, T/C",[19],0.14%
same,"viability, T/C",[20],0.18%
same,"viability, T/C",[21],0.21%
same,"viability, T/C",[22],0.12%
same,"viability, T/C",[23],0.19%
same,"viability, T/C",[24],0.15%
same,"viability, T/C",[25],0.72%
same,"viability, T/C",[26],0.53%
same,"viability, T/C",[27],0.97%
same,"viability, T/C",[28],0.5%
same,"viability, T/C",[29],1.23%
same,"viability, T/C",[30],0.45%
same,"viability, T/C",[31],0.21%
same,"viability, T/C",[32],0.23%
same,"viability, T/C",[33],0.37%
same,"viability, T/C",[34],0.21%
same,"viability, T/C",[35],0.32%
same,"viability, T/C",[36],0.2%
